In article PMC7565988, “Insight into the Anticancer Activity of Copper(II) 5-Methylenetrimethylammonium-Thiosemicarbazonates and Their Interaction with Organic Cation Transporters” (Biomolecules, 2020):
Like-named read-outs stand apart in the source and are kept apart here.

Tests used:
[1] = test system: Colo 205 doxorubicin-sensitive colonic adenocarcinoma cells; assay: MTT cytotoxicity (24 h) / antiproliferation (72 h) assay; assay type: cell-based, human; conditions: read-out: Colo205 IC50
Procedure: Human doxorubicin-sensitive Colo 205 (ATCC-CCL-222) and multidrug resistant Colo 320 (overexpressing ABCB1 (MDR1)-LRP (ATCC-CCL-220.1)) colonic adenocarcinoma cell lines were purchased from LGC Promochem, Teddington, UK. The cells were cultured in RPMI 1640 medium supplemented with 10% heat-inactivated fetal bovine serum, 2 mM L-glutamine, 1 mM Na-pyruvate and 100 mM Hepes. The cell lines were incubated at 37 °C, in a 5% CO2, 95% air atmosphere. The semi-adherent human colon cancer cells were detached with Trypsin-Versene (EDTA) solution for 5 min at 37 °C.
(§1) In the study non-cancerous human embryonic lung fibroblast MRC-5, human colonic adenocarcinoma cell line (doxorubicin-sensitive Colo 205, multidrug resistant Colo 320) and neuroblastoma cell line SH-SY5Y were used to determine the effect of compounds on cell growth. The effects of increasing concentrations of compounds on cell growth were tested in 96-well flat-bottomed microtiter plates. The compounds were diluted in a volume of 100 μL of medium.
In case of the colonic adenocarcinoma cells, the two-fold serial dilutions of compounds were prepared in 100 μL of RPMI 1640, horizontally. The semi-adherent colonic adenocarcinoma cells were treated with Trypsin–Versene (EDTA) solution. The cells were adjusted to a density of 2 × 10^4 cells in 100 μL of RPMI 1640 medium, and were added to each well, with the exception of the medium control wells. The final volume of the wells containing compounds and cells was 200 μL.
(§2) The culture plates were incubated at 37 °C for 24 h; at the end of the incubation period, 20 μL of MTT (thiazolyl blue tetrazolium bromide, Sigma) solution (from a stock solution of 5 mg/mL) were added to each well. After incubation at 37 °C for 4 h, 100 μL of sodium dodecyl sulfate (SDS) (Sigma) solution (10% in 0.01 M HCI) were added to each well and the plates were further incubated at 37 °C overnight. Cell growth was determined by measuring the optical density (OD) at 540/630 nm with Multiscan EX ELISA reader (Thermo Labsystems, Cheshire, WA, USA). […] Curves were fitted by GraphPad Prism software using the sigmoidal dose-response model (comparing variable and fixed slopes).
(§3) The method is similar to the one described in the assay for cytotoxic effect. […] The culture plates were incubated at 37 °C for 72 h and after the incubation time, the plates were stained with MTT according to the previous experimental protocol described for the cytotoxicity assay.

[2] = test system: SH-SY5Y neuroblastoma cells; assay: as above; assay type: cell-based, human; conditions: MTT
Procedure: SH-SY5Y (ATCC® CRL-2266™) neuroblastoma cell line was purchased from LGC Promochem, Teddington, UK. The cell line was cultured in Eagle’s Minimal Essential Medium (EMEM, containing 4.5 g/L glucose) supplemented with a non-essential amino acid mixture, a selection of vitamins and 10% heat-inactivated foetal bovine serum. The cell line was incubated at 37 °C, in a 5% CO2, 95% air atmosphere.
as §1
The adherent human embryonal lung fibroblast and SH-SY5Y neuroblastoma cells were cultured in 96-well flat-bottomed microtiter plates, using EMEM supplemented with 10% heat-inactivated foetal bovine serum. The density of the cells was adjusted to 2 × 10^4 cells in 100 μL per well, the cells were seeded for 24 h at 37 °C, 5% CO2, then the medium was removed from the plates containing the cells, and the dilutions of compounds previously made in a separate plate were added to the cells in 200 μL.
as §2, §3

[3] = set-up: method as in doi:10.1002/ejic.201200360; conditions: pure water; cited from earlier work
[4] = set-up: method as in doi:10.1002/ejic.201200360; conditions: pH 7.4; cited from earlier work
[5] = target: T1, OCT1 (Homo sapiens, UniProt O15245); set-up: method as in PMID 14576340; conditions: reference inhibitor; cited from earlier work
T1 construct: expressed in transfected cells
T1 sequence (O15245 1-554): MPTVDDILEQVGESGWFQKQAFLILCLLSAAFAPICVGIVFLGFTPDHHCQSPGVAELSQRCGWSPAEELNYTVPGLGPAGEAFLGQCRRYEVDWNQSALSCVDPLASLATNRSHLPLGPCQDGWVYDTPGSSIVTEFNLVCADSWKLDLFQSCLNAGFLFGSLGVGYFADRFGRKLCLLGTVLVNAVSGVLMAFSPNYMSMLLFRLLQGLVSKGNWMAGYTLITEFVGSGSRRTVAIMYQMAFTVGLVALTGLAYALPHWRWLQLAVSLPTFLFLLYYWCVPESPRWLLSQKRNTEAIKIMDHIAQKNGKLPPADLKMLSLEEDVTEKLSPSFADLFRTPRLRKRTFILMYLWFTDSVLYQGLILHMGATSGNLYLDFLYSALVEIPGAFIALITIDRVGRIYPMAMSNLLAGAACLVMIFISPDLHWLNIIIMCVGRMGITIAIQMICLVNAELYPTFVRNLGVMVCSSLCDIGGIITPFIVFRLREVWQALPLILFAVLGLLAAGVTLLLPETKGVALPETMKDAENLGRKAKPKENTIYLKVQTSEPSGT

[6] = target: T2, OCT2 (Homo sapiens, UniProt O15244); set-up: method as in PMID 14576340; conditions: reference inhibitor; cited from earlier work
T2 construct: expressed in transfected cells
T2 sequence (O15244 1-555): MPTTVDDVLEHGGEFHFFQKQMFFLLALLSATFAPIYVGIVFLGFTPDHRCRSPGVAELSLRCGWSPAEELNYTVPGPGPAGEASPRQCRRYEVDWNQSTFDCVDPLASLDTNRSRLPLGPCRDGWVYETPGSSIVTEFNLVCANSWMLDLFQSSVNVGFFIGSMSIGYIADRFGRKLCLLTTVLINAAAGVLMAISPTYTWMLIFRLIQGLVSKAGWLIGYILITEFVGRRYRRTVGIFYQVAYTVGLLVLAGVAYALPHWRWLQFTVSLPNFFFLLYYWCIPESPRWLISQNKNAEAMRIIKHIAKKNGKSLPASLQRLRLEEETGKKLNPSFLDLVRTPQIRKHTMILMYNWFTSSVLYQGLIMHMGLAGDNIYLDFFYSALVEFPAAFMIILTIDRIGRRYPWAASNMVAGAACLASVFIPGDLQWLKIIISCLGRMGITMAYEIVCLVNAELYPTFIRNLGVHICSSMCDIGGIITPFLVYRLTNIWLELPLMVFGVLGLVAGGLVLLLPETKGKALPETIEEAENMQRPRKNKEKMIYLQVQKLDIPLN

[7] = target: T3, OCT3 (Homo sapiens, UniProt O75751); set-up: method as in PMID 14576340; conditions: reference inhibitor; cited from earlier work
T3 construct: expressed in transfected cells
T3 sequence (O75751 1-556): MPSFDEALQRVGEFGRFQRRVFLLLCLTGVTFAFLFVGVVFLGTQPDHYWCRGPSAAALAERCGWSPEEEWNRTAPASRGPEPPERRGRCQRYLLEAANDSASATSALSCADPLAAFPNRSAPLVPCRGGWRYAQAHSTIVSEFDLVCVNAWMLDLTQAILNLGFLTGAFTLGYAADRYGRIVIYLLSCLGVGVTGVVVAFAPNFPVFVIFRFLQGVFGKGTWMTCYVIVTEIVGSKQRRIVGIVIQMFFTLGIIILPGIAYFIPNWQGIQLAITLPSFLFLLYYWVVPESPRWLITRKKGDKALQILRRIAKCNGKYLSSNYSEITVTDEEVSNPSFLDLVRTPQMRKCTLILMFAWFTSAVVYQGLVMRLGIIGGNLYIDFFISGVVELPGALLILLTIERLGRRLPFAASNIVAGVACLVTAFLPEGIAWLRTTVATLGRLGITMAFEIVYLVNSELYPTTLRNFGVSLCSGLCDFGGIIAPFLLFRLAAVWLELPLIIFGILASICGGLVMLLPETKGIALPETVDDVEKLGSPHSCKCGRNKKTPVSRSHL

For `N.N.[Cl][Pt][Cl]` [Cisplatin, reference compound], the IC50 ([1]; 24 h exposure) was 68800 ± 5080 nM, the IC50 ([1]; 72 h exposure) was 8140 ± 1590 nM and the IC50 ([2]; 24 h exposure) was 26000 ± 2380 nM. The IC50 ([2]; 72 h exposure) was 650 ± 80 nM.

In the case of `NC(=S)N/N=C/c1ccccc1O` [STSC, salicylaldehyde thiosemicarbazone], the “pKa of the phenolic OH moiety” value [3] is listed as 8.88 and the logD7.4 [4] is listed as “+1.74”.

For `CCN1/C(=C/c2ccc3ccccc3[n+]2CC)C=Cc2ccccc21` [D-22, decynium-22], the IC50 [5] is given as 980 ± 310 nM, the IC50 [6] is given as 1130 ± 190 nM and the IC50 [7] is given as 90 ± 10 nM.
